Assay [1] concerns the target T1, human cloned 5-HT2B receptors (Homo sapiens, UniProt P41595).
T1 construct: expressed in transfected cells; host or cells: CHO-K1
The assay can be described thus: Human cloned 5-HT2B cell-based functional assay. The following applies: inhibition of 5-HT response, Fluo-4 AM, CHO.K1 cells expressing cloned 5-HT2B receptor. How it is done:
The following describes an in vitro functional assay using human cloned 5-HT2B receptors to determine the ability of compounds to block the receptor. CHO.K1 cells expressing cloned 5-HT2B receptor were maintained In Ultra-CHO medium containing 400 μg/ml of G418, 1000 U/ml penicillin, 100 μg/ml streptomycin, 2.5 μg/ml fungizone, in 95/5% O2/CO2 at 37° C. Ultra-CHO medium additionally supplemented with 1% foetal bovine serum was used when seeding the cells and removed after 5 hours. Cells were plated in Costar 96 well white, clear-bottomed plate at a density of 50,000 cells per well and incubated for at least 24 hours in 95/5% O2/CO2 at 37° C. before running the assay. Media was removed from the wells and 200 μl of 4 μM Fluo-4 AM added, this was incubated in a Wallace Victor 2V workstation at 37° C. for 30 minutes. The Fluo-4 AM was then removed from the wells, which were then washed twice with 200 μl of buffer (HBSS without calcium/magnesium/phenol red, 20 mM HEPES, 1 mM Ca^2+, 1 mM Mg^2+, 2.5 mM probenecid, pH to 7.4), 180 μl of buffer or test compound was added to the well and incubated for 30 minutes. The Victor 2V injectors were used to inject 20 μl of 5-HT after obtaining 10 0.1-second baseline readings at 535 nm, followed by 150 readings. All test compounds were aliquoted in 100% DMSO at 10 mM and diluted to 1 mM in 50% DMSO, subsequent dilutions were made using buffer. Buffer was also used to dilute the 5-HT. Data were analysed using Microsoft Excel and GraphPad Prism, with the latter used to produce sigmoidal dose-response curves for each compound. The compound concentration that inhibited the 5-HT response by 50% was taken (IC50-M), and the results are shown in Table 2, as pIC50, being the negative log (to the base 10) of the measured IC50 values.

In assay [2] the target is T2, cloned human 5-HT2C receptor (Homo sapiens, UniProt P28335).
T2 construct: purchased Euroscreen; host or cells: CHO-K1
T2 sequence (P28335 33-458): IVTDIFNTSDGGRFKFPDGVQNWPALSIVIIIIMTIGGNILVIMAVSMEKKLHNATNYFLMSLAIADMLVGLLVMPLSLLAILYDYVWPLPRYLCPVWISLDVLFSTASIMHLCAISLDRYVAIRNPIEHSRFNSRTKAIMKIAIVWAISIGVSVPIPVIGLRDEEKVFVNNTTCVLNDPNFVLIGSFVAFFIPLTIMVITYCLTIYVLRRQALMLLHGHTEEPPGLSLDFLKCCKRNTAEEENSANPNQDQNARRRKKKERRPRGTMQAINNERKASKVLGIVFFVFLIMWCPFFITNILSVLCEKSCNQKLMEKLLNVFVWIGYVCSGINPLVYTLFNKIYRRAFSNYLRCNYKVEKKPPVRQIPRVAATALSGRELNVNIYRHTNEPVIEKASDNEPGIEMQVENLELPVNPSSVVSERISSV
The experiment in a line: Human 5-HT2C receptor binding assay. The following applies: [3H]mesulergine (1 nM) displacement, CHO-K1 cell membranes; read-out: 5-HT2C pKi (converted). The method, boiled down: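 CHO-K1 cell membranes expressing the receptor (6 μg) competed against [^3H]mesulergine (1 nM) in 50 mM Tris-HCl pH 7.7, 0.1% ascorbic acid, 10 μM pargyline for 30 min at 37° C; compounds 1×10^−10 to 1×10^−4M. Nonspecific binding with 100 μM mianserin; filtration and scintillation counting. IC50 converted to Ki using saturation-derived Kd.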

Assay [3] has as its target T1, human cloned 5-HT2B receptors. The experiment in a line: Human cloned 5-HT2B receptor binding assay. The settings on record: [3H]LSD (1 nM) displacement, membranes of CHO-K1 cells expressing cloned 5-HT2B receptor; read-out: 5-HT2B pKi (converted). The method, boiled down: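 Membranes from CHO-K1 cells expressing cloned receptor incubated 30 min at 37 °C with 1 nM [3H]LSD, 10 μM pargyline and compound (1×10^−10 to 1×10^−4 M) in 50 mM Tris-HCl pH 7.4, 4 mM CaCl2. Nonspecific binding with 100 μM 5-HT; filtration and scintillation counting, IC50 converted to Ki using Kd from saturation binding.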

The target of assay [4] is T3, cloned human 5-HT2A receptor (Homo sapiens, UniProt P28223).
T3 construct: purchased Euroscreen; host or cells: CHO-K1
T3 sequence (P28223 whole entry): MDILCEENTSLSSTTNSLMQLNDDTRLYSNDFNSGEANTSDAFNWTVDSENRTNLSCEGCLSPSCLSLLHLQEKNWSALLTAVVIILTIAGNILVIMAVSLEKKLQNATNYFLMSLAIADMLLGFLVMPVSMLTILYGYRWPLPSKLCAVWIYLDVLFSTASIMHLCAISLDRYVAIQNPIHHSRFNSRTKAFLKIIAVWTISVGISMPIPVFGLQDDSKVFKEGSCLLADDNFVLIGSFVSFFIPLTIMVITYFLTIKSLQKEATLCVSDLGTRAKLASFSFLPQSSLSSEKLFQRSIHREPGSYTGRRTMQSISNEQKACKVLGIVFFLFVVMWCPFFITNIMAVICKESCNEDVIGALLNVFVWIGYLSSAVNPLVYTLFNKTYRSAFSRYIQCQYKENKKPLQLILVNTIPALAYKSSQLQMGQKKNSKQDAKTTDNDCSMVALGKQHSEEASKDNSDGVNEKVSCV
The experiment in a line: Human 5-HT2A receptor binding assay. The settings on record: [3H]ketanserin (1 nM) displacement, CHO-K1 cell membranes; read-out: 5-HT2A pKi (converted). The method, boiled down:
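Competition binding with 15 μg membranes from CHO-K1 cells expressing cloned human receptor, 1 nM [3H]ketanserin, 10 μM pargyline, 50 mM Tris pH 7.4, compounds 1×10^−10 to 1×10^−4 M; 100 μM mianserin defined nonspecific binding. Incubated 15 min at 37 °C, filtered, counted; IC50 converted to Ki using saturation-derived Kd.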

The pIC50 is the negative decadic logarithm of the IC50, by convention in mol/L. A higher pIC50 goes with a small IC50.

The structures appear in SMILES notation. pIC50: −log10 of the molar value. Where only a bound is given, the exact number is not on record here.

T1 sequence (P41595 whole entry): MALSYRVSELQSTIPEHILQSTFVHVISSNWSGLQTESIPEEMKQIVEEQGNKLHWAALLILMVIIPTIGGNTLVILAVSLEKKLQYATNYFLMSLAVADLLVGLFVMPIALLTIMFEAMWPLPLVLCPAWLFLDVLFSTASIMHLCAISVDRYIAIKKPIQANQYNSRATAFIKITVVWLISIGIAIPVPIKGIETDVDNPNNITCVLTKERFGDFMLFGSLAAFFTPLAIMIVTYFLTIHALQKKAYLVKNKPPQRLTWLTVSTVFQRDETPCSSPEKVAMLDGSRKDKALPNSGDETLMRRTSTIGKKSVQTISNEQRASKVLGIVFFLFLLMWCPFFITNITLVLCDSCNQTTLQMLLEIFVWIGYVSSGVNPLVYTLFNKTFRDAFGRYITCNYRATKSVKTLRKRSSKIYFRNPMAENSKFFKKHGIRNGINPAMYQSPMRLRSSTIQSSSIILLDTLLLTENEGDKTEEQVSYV

`COc1ccc2ccccc2c1-c1c[nH]c(NC(C)=O)n1` [Compound 103C, N-[4-(2-Methoxy-naphthalen-1-yl)-1H-imidazol-2-yl]-acetamide]: the pIC50 in assay [1] is over 7.00. Besides, the values for the Ki in assay [2], in assay [3] and in assay [4] were over 316 nM, under 100 nM and over 316 nM, respectively.
For the molecule `CC(=O)Nc1nc(-c2ccc(F)c3ccccc23)c[nH]1` [Compound 103F, N-[4-(4-Fluoro-naphthalen-1-yl)-1H-imidazol-2-yl]-acetamide], in assay [1], the pIC50 is over 7.00. For the same molecule, the Ki was over 3160 nM in assay [2], under 100 nM in assay [3] and over 3160 nM in assay [4].
For the molecule `COc1ccc2ccccc2c1-c1c[nH]c(N)n1` [Compound 104C, 4-(2-Methoxy-naphthalen-1-yl)-1H-imidazol-2-ylamine], in assay [1], the pIC50 was over 6.00. In addition, the Ki in assay [2] is over 316 nM; in assay [3], under 100 nM; in assay [4], over 1000 nM.
`COc1ccc2ccccc2c1-c1nc(N)[nH]c1C` [Compound 104J, 4-(2-Methoxy-naphthalen-1-yl)-5-methyl-1H-imidazol-2-ylamine] gave a pIC50 in assay [1] of over 7.00. For the same molecule, the Ki in assay [2] was over 100 nM; in assay [3], under 100 nM; in assay [4] it was over 316 nM.
In the case of `COc1ccccc1-c1cccc(-c2oc(N)nc2C)c1` [Compound 219B, 5-(2′-Methoxy-biphenyl-3-yl)-4-methyl-oxazol-2-ylamine, trifluoroacetic acid], in assay [1], the pIC50 is over 6.00. The Ki was over 1000 nM in assay [2], under 100 nM in assay [3] and over 1000 nM in assay [4].
In assay [1], `Cc1cccc(-c2cccc(Nc3nc(N)nn3C)c2)c1` [Compound 406C, 1-methyl-1-(3′-methyl-biphenyl-3-yl)-1H-[1,2,4]triazole-3,5-diamine] showed a pIC50 of over 7.00. Also, the Ki in assay [2] was over 1000 nM; in assay [3] it was under 100 nM; in assay [4], over 1000 nM.
On to `COc1ccccc1-c1ccc(Nc2nc(N)n(C)n2)cc1` [Compound 411B, N^3-(2′-methoxy-biphenyl-4-yl)-7-methyl-1H-[1,2,4]triazole-3,5-diamine trifluoroacetic acid], for which the Ki in assay [2] is over 1000 nM; in assay [3] it was under 1000 nM; in assay [4] it was over 1000 nM.
For the molecule `Cc1cccc(-c2ccc(Nc3nc(N)n(C)n3)cc2)c1` [Compound 411C, 1-methyl-N^3-(3′-methyl-biphenyl-4-yl)-1H-[1,2,4]triazole-3,5-diamine trifluoroacetic acid], the Ki in assay [2] was over 1000 nM; in assay [3] it was under 1000 nM; in assay [4] it was over 1000 nM.
